Experimental data reported in patent publication US20140308244A1, “Combination Therapy for Treatment of Inflammatory Demyelinating Disease” (The Board of Trustees of the Leland Stanford Junior …, priority 2011, published 2014).

Tests used:
EAE = EAE relapse model: Rebif and/or Lisinopril treatment initiated at peak of disease; format: in vivo; settings: Rebif daily 0.25 μg/mouse intraperitoneally, Lisinopril 1 mg/kg/day orally
Experimental: FIG. 2 is a graph of disease scores for EAE, when combination treatment of Rebif and Lisinopril is initiated at the peak of disease.
In this instance, Rebif was given daily (0.25 μg/mouse, intraperitoneally), and Lisinopril was given daily (1 mg/kg/day, orally).

[1] = tested on: experimental autoimmune encephalomyelitis (EAE); settings: mouse model for multiple sclerosis; Platten et al, 2009, PNAS 106:14948; cited from earlier work

## NCCCC[C@H](N[C@@H](CCc1ccccc1)C(=O)O)C(=O)N1CCC[C@H]1C(=O)O [Lisinopril]
EAE
  Average Relapse Rate: 0.7
EAE; listed as PBS/Lisinopril
  Average Relapse Rate: 0.70
[1]
  efficacy in treating EAE: effective
